# Measured values from patent publication US7910344B2, “Proteins having tyrosinase activity” (Valtion teknillinen tutkimuskeskus, priority 2005, dated 2011).
# Where two headings read alike, the source gives them in different places.
# Experiments:
# TYR2 [1] = assay: Substrate specificity by oxygen consumption measurements, purified TYR2; format: biochemical, Trichoderma reesei
# Procedure: (§1) pH optimum for the tyrosinase was studied by oxygen consumption measurements. Measurements were performed with a single channel oxygen meter (Precision sensing GmbH, Germany) containing fiber-optic oxygen minisensors with measurement range 0-100% oxygen. L-Dopa in 15 mM concentration, dissolved in 0.1 M sodium phosphate buffer, pH 7.0, was used as substrate. Reactions were carried out with 1.8 ml substrate solution and with 4.3 μg of the purified T. reesei tyrosinase. Three different buffers were used according to their buffer capacity. McIlvaine buffer was used within a pH range of 2-7, Tris-HCl buffer (50 mM) within a pH range 7-9 and borate buffer (12.5 mM) within a pH range of 8-9.5. […] In the measurements with Tris-HCl buffer in pH 8, 8.5 and 9.0 also a blank test without enzyme addition was performed to correct the effect of auto-oxidation in results.
# (§2) Substrate specificity of the tyrosinase on various selected substrates was studied by oxygen consumption measurements. The concentration of substrates was 2.5 mM, and the compounds were dissolved in 0.1 M sodium phosphate buffer, pH 7.0. Reactions were carried out with 1.8 ml of 2.5 mM substrate solutions and with 24 μg of the purified TYR2. As a reference the substrate specificity assays were also determined for the commercial Agaricus bisporus crude tyrosinase (Sigma). Respectively, 50 μg of said mushroom tyrosinase was used in the assays. Activity of TYR2 and Agaricus tyrosinase were analyzed on selected model peptides containing tyrosine in different positions in the peptide chain (Table 5). Oxidation of L-/DL-D-Dopa and -tyrosine by TYR2 and Agaricus tyrosinase was also measured (Table 6).
# [2] = test system: Agaricus bisporus crude tyrosinase (Sigma); assay: Substrate specificity by oxygen consumption measurements, commercial Agaricus tyrosinase; format: biochemical; settings: for Agaricus tyr Relative oxygen consumption (%): mono-phenols
# Procedure: as §1, §2
# Trichoderma reesei = assay: Plate test screening for tyrosinase activity from T. reesei; format: cell-based; settings: T. reesei on Malt Extract agar with indicator
# Procedure: The indicators for tyrosinase activity screening were selected according to literature. L-Tyrosine, p-cresol, p-coumaric acid, tyramine, 3-hydroxy antranilic acid, and catechin were used in concentrations shown in Table 1. Trichoderma reesei was grown on Malt Extract agar containing the selected indicators (Table 1) (Difco) at 37° C. for 48 days. Possible colour changes on the plates were observed visually.
# TYR2 [3] = assay: Tyrosinase activity assay monitoring dopachrome formation at 475 nm; format: biochemical, Trichoderma reesei
# Procedure: The activity was also measured on L-tyrosine (Sigma) in concentration of 2 mM. Both activity assays were carried out in 0.1 M sodium phosphate buffer (pH 7.0) at 25° C. monitoring dopachrome formation at 475 nm. The molar extinction coefficient ε 3400 M^−1 cm^−1 (Robb, 1984) was used. Measurements were carried out by using a two-beam spectrophotometer (Lambda 20, Perkin-Elmer, Über-lingen, Germany). Activities were expressed as nanokatals.
# The result was also confirmed by determining the enzyme activity on L-Dopa and L-tyrosine by following oxygen consumption in enzymatic reaction. […] The effect of SDS (Sigma) on tyrosinase activity was measured using different concentrations of SDS in the activity assay.
# [4] = mono-phenols, in relation to L-tyrosine, 2.5 mM substrate, pH 7.0, 24 μg TYR2
# [5] = in relation to L-tyrosine, 2.5 mM substrate, pH 7.0, 50 μg mushroom tyrosinase
# [6] = di- and tri-phenolic compounds, in relation to L-Dopa, 2.5 mM substrate, pH 7.0, 24 μg TYR2
# [7] = di- and tri-phenolic compounds, in relation to L-Dopa, 2.5 mM substrate, pH 7.0, 50 μg mushroom tyrosinase
# [8] = L-/DL-/D-tyrosine, L-tyrosine = 100
# [9] = di-peptides, in relation to L-tyrosine, 2.5 mM substrate, pH 7.0
compound,measurement,setting,value
OCCc1ccc(O)cc1 [p-Tyrosol],TYR2 Relative oxygen consumption (%),TYR2 [1]; [4],346%
same,Agaricus tyr Relative oxygen consumption (%),[2]; [5],157%
Oc1cccc(O)c1O [Pyrogallol],TYR2 Relative oxygen consumption (%),TYR2 [1]; [6],55%
same,Agaricus tyrosinase Relative oxygen consumption (%),[2]; [7],248%
N[C@H](Cc1ccc(O)c(O)c1)C(=O)O [D-dopa],TYR2 Relative oxygen consumption (%),"TYR2 [1]; L-/DL-/D-dopa, L-dopa = 100",18%
same,Agaricus tyrosinase Relative oxygen consumption (%),"[2]; L-/DL-/D-dopa, L-dopa = 100",106%
Nc1c(O)cccc1C(=O)O [3-Hydroxyanthranilic acid],Reaction with indicator in plate test,Trichoderma reesei,clear positive reactions
same,TYR2 Relative oxygen consumption (%),TYR2 [1]; [4],0%
same,Agaricus tyr Relative oxygen consumption (%),[2]; [5],0%
Oc1cc(O)c2c(c1)O[C@H](c1ccc(O)c(O)c1)[C@H](O)C2 [(−)-Epicatechin],TYR2 Relative oxygen consumption (%),TYR2 [1]; [6],106%
same,Agaricus tyrosinase Relative oxygen consumption (%),[2]; [7],286%
COc1cc(/C=C/C(=O)O)ccc1O [Ferulic acid],TYR2 Relative oxygen consumption (%),TYR2 [1]; [4],0%
same,Agaricus tyr Relative oxygen consumption (%),[2]; [5],0%
Oc1cc(O)c2c(c1)O[C@H](c1ccc(O)c(O)c1)[C@@H](O)C2 [(+)-Catechin hydrate],TYR2 Relative oxygen consumption (%),TYR2 [1]; [6],220%
same,Agaricus tyrosinase Relative oxygen consumption (%),[2]; [7],282%
Nc1ccc(O)cc1 [4-Aminophenol],TYR2 Relative oxygen consumption (%),TYR2 [1]; [4],8%
same,Agaricus tyr Relative oxygen consumption (%),[2]; [5],9%
NC(Cc1ccc(O)c(O)c1)C(=O)O (racemic) [DL-dopa],TYR2 Relative oxygen consumption (%),"TYR2 [1]; L-/DL-/D-dopa, L-dopa = 100",46%
same,Agaricus tyrosinase Relative oxygen consumption (%),"[2]; L-/DL-/D-dopa, L-dopa = 100",118%
NC(Cc1ccc(O)cc1)C(=O)O (racemic) [DL-tyrosine],TYR2 Relative oxygen consumption (%),TYR2 [1]; [8],40%
same,Agaricus tyrosinase Relative oxygen consumption (%),[2],102%
NCCc1ccc(O)cc1 [Tyramine],Reaction with indicator in plate test,Trichoderma reesei,clear positive reactions
same,TYR2 Relative oxygen consumption (%),TYR2 [1]; [4],42%
same,Agaricus tyr Relative oxygen consumption (%),[2]; [5],85%
Cc1ccc(O)cc1 [p-Cresol],TYR2 Relative oxygen consumption (%),TYR2 [1]; [4],172%
same,Agaricus tyr Relative oxygen consumption (%),[2]; [5],104%
N[C@@H](Cc1ccc(O)cc1)C(=O)O [L-Tyrosine],Reaction with indicator in plate test,Trichoderma reesei,clear positive reactions
same,TYR2 Relative oxygen consumption (%),TYR2 [1]; [8],100%
same,TYR2 Relative oxygen consumption (%),TYR2 [1]; [9],100%
same,TYR2 Relative oxygen consumption (%),TYR2 [1]; [4],100%
same,Agaricus tyrosinase Relative oxygen consumption (%),[2],100%
same,Agaricus tyrosinase Relative oxygen consumption (%),[2]; [9],100%
same,Agaricus tyr Relative oxygen consumption (%),[2]; [5],100%
"CCCCCCCCCCCCOS(=O)(=O)[O-].[Na+] [SDS, sodium dodecyl sulfate]",Tyrosinase activity left in presence of SDS,TYR2 [3]; 0.5 mM SDS in the activity assay,50%
N[C@H](Cc1ccc(O)cc1)C(=O)O [D-tyrosine],TYR2 Relative oxygen consumption (%),TYR2 [1]; [8],7%
same,Agaricus tyrosinase Relative oxygen consumption (%),[2],61%
O=C(O)C=Cc1ccc(O)cc1 [p-Coumaric acid],TYR2 Relative oxygen consumption (%),TYR2 [1]; [4],390%
same,Agaricus tyr Relative oxygen consumption (%),[2]; [5],0%
Oc1ccc(S)cc1 [4-Mercaptophenol],TYR2 Relative oxygen consumption (%),TYR2 [1]; [4],0%
same,Agaricus tyr Relative oxygen consumption (%),[2]; [5],0%
"N[C@@H](Cc1ccc(O)c(O)c1)C(=O)O [L-Dopa, L-3,4 dihydroxyphenylalanine]",Activity on L-Dopa compared with L-tyrosine,"TYR2 [3]; 15 mM L-Dopa, 2 mM L-tyrosine, pH 7.0, 25° C.",approximately six times higher activity values than L-tyrosine
same,TYR2 Relative oxygen consumption (%),"TYR2 [1]; L-/DL-/D-dopa, L-dopa = 100",100%
same,TYR2 Relative oxygen consumption (%),TYR2 [1]; [6],100%
same,Agaricus tyrosinase Relative oxygen consumption (%),"[2]; L-/DL-/D-dopa, L-dopa = 100",100%
same,Agaricus tyrosinase Relative oxygen consumption (%),[2]; [7],100%
Oc1ccccc1O [Pyrocatechol],TYR2 Relative oxygen consumption (%),TYR2 [1]; [6],88%
same,Agaricus tyrosinase Relative oxygen consumption (%),[2]; [7],328%
O=C(O)C=Cc1ccccc1O [o-Coumaric acid],TYR2 Relative oxygen consumption (%),TYR2 [1]; [4],0%
same,Agaricus tyr Relative oxygen consumption (%),[2]; [5],0%
Catechin,Reaction with indicator in plate test,Trichoderma reesei,clear positive reactions
Oc1ccccc1 [Phenol],TYR2 Relative oxygen consumption (%),TYR2 [1]; [4],121%
same,Agaricus tyr Relative oxygen consumption (%),[2]; [5],85%
